Results on four molecules are retold here after PMC5421785, “Citrullination only infrequently impacts peptide binding to HLA class II MHC” (PLoS ONE, 2017).

Square brackets hold non-standard residues; d marks the D form. Ends that are not written are not given here. Peptide text beside a SMILES is read from it. Cit = NC(=O)NCCC[C@H](N)C(=O)O

Common to all, as to assay: HLA class II peptide binding, inhibition of radiolabeled peptide binding to purified MHC
The target in assay [1] is DRB1*04:02 (Homo sapiens, UniProt P01903+P01911, A100E/A169T/F76Y/K127E/L162R/M171V/N62H/P40V/Q125Y/Q99D/R42H/S133A/S149N/S66Y/V209L/W38E). As to conditions: SE-, competition with radiolabeled peptide, two-day incubation, three or more independent experiments.
The target in assay [2] is DRB1*04:05 (Homo sapiens, UniProt P01903+P01911, A100R/A169T/D86S/F76Y/I96L/K127E/L162R/M171V/N62H/P40V/Q125Y/R42H/S133A/S149N/S66Y/V115G/V209L/W38E). As to conditions: SE+, competition with radiolabeled peptide, two-day incubation, three or more independent experiments.
The target in assay [3] is DRB1*16:02 (Homo sapiens, UniProt P01903+P01911, A100R/F76Y/I96L/Q99D/V115G). As to conditions: SE-, competition with radiolabeled peptide, two-day incubation, three or more independent experiments.
Assay [4] concerns the target DRB3*02:02 (Homo sapiens, UniProt P01903+P79483, A212P/D57E/F66Y/L67A/R103Q/R218S/R40L/S89Y/T80R/V86D/Y55F/Y59H). The following applies: Other DR, competition with radiolabeled peptide, two-day incubation, three or more independent experiments.
Assay [5] deals with DRB1*08:02 (Homo sapiens, UniProt P01903+P01911, A100R/A103L/A169T/F76Y/H45Y/I96F/K41T/L162R/M171V/P40S/Q125H/Q178H/Q39Y/Q99D/R218S/R42G/S66Y/V115G/W38E). The following applies: Other DR, competition with radiolabeled peptide, two-day incubation, three or more independent experiments.
Assay [6] concerns the target T1, HLA-DRB1*01:01 (Homo sapiens, UniProt P01903+P01911, A100R/D57E/F55L/F60I/F76Y/I96L/L162R/M171V/P40L/Q125E/R42F/V115G/Y59C).
T1 construct: EBV transformed homozygous cell lines were used as sources of MHC molecules; endogenous in cells; host or cells: EBV transformed homozygous cell lines
As to conditions: read-out: IC50 DRB1*01:01.

In assay [7] the target is T2, DPB1*04:01 (Homo sapiens, UniProt P04440+P20036).
T2 construct: EBV transformed homozygous cell lines were used as sources of MHC molecules; endogenous in cells; host or cells: EBV transformed homozygous cell lines
T2 sequence (P04440 30-258): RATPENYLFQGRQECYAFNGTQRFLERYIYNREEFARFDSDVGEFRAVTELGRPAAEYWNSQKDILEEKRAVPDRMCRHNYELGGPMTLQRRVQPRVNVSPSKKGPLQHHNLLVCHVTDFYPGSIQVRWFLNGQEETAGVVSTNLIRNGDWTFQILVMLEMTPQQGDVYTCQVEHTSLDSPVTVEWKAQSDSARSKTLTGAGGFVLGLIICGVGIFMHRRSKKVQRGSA
T2 sequence (P20036 29-260 partner): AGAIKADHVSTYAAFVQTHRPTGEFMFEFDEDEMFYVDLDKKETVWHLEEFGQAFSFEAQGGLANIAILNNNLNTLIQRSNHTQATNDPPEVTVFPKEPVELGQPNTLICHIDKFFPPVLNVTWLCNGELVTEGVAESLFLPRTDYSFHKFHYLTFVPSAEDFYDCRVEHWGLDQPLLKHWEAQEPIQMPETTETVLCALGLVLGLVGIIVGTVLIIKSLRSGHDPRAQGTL
The following applies: DP; purified MHC, competition with radiolabeled peptide, two-day incubation, three or more independent experiments.

Assay [8] concerns the target DQB1*03:01 (Homo sapiens, UniProt P01909+P01920). As to conditions: DQ, competition with radiolabeled peptide, two-day incubation, three or more independent experiments.
Assay [9] concerns the target T3, DRB3*01:01 (Homo sapiens, UniProt P01903+P79483).
T3 construct: EBV transformed homozygous cell lines were used as sources of MHC molecules; endogenous in cells; host or cells: EBV transformed homozygous cell lines
As to conditions: Other DR, competition with radiolabeled peptide, two-day incubation, three or more independent experiments.

Assay [10] addresses DRB1*03:01 (Homo sapiens, UniProt P01903+P01911, A100K/A102G/A103R/A169T/F55Y/I96L/K41T/L162R/M171V/P40S/Q125H/Q178H/Q39Y/R42S/S66N/T106N/T262R/W38E/Y61H). As to conditions: Other DR, competition with radiolabeled peptide, two-day incubation, three or more independent experiments.
For assay [11], the target named is T4, DRB1*15:01 (Homo sapiens, UniProt P01903+P01911).
T4 construct: EBV transformed homozygous cell lines were used as sources of MHC molecules; endogenous in cells; host or cells: EBV transformed homozygous cell lines
The following applies: SE-, competition with radiolabeled peptide, two-day incubation, three or more independent experiments.

For assay [12], the target named is DRB1*12:01 (Homo sapiens, UniProt P01903+P01911, A100R/A169T/D57E/D86V/F55L/H45Y/K41T/L162R/M171V/P40S/Q125H/Q178H/Q39Y/Q99D/R42G/S66L/T262R/V114A/V67L/W38E/Y59H/Y61H/Y89S). The following applies: SE-, competition with radiolabeled peptide, two-day incubation, three or more independent experiments.
Assay [13] addresses DRB1*04:04 (Homo sapiens, UniProt P01903+P01911, A100R/A169T/F76Y/I96L/K127E/L162R/M171V/N62H/P40V/Q125Y/R42H/S133A/S149N/S66Y/V209L/W38E). The following applies: SE+, competition with radiolabeled peptide, two-day incubation, three or more independent experiments.
The target in assay [14] is DRB1*11:01 (Homo sapiens, UniProt P01903+P01911, A100R/A169T/A87E/I96F/K41T/L162R/M171V/P40S/Q125H/Q178H/Q39Y/Q99D/R42S/S66Y/T262R/V115G/W38E). The following applies: SE-, competition with radiolabeled peptide, two-day incubation, three or more independent experiments.
Assay [15] addresses DRB1*10:01 (Homo sapiens, UniProt P01903+P01911, A100R/A169T/D57E/F55L/F60V/F69Y/F76Y/I96L/L162R/M171V/P40V/Q260P/Q39E/Q99R/R195Q/R42F/S149N/S66Y/T210M/V115G/V67A/W38E/Y59R/Y61H). As to conditions: SE+, competition with radiolabeled peptide, two-day incubation, three or more independent experiments.
The target in assay [16] is T5, DRB5*01:01 (Homo sapiens, UniProt P01903+Q30154).
T5 construct: EBV transformed homozygous cell lines were used as sources of MHC molecules; endogenous in cells; host or cells: EBV transformed homozygous cell lines
The following applies: Other DR, competition with radiolabeled peptide, two-day incubation, three or more independent experiments.

Assay [17] addresses DRB1*07:01 (Homo sapiens, UniProt P01903+P01911, A100R/A102G/A103Q/D57E/D86V/E43K/F76Y/K127E/L162R/M171V/P40G/Q125H/Q99D/R33Q/R42Y/R54Q/S133A/S66F/T210M/V115G/Y107V/Y59L/Y89S). The following applies: Other DR, competition with radiolabeled peptide, two-day incubation, three or more independent experiments.
Assay [18] concerns the target DRB1*13:02 (Homo sapiens, UniProt P01903+P01911, A100E/A169T/K41T/L162R/M171V/P40S/Q125H/Q178H/Q39Y/Q99D/R42S/S66N/T262R/V115G/W38E/Y61H). The following applies: SE-, competition with radiolabeled peptide, two-day incubation, three or more independent experiments.
The target in assay [19] is DRB1*09:01 (Homo sapiens, UniProt P01903+P01911, A100R/A103E/D57H/D86V/F55Y/F60I/F76Y/I96F/K127E/L162R/M171V/P40D/Q125H/Q99R/R33Q/R42F/S133A/S66N/T210M/V115G/W38K/Y107V/Y59G/Y89S). As to conditions: Other DR, competition with radiolabeled peptide, two-day incubation, three or more independent experiments.
In assay [20] the target is T6, HLA-DRB1*04:01 (Homo sapiens, UniProt P01903+P01911, A100K/A169T/F76Y/I96L/K127E/L162R/M171V/N62H/P40V/Q125Y/R42H/S133A/S149N/S66Y/V115G/V209L/W38E).
T6 construct: EBV transformed homozygous cell lines were used as sources of MHC molecules; endogenous in cells; host or cells: EBV transformed homozygous cell lines
The following applies: read-out: IC50 DRB1*04:01.

In assay [21] the target is T7, DRB4*01:01 (Homo sapiens, UniProt P01903+P13762, G164S).
T7 construct: EBV transformed homozygous cell lines were used as sources of MHC molecules; endogenous in cells; host or cells: EBV transformed homozygous cell lines
The following applies: Other DR, competition with radiolabeled peptide, two-day incubation, three or more independent experiments.
Throughout, for IC50 DRB1*01:01: competition with radiolabeled peptide (0.1–1 nM).
Throughout, for IC50 DRB1*04:01: competition with radiolabeled peptide (0.1–1 nM).

Chain of DQB1*03:01 (P01920 33-261, other chains not shown): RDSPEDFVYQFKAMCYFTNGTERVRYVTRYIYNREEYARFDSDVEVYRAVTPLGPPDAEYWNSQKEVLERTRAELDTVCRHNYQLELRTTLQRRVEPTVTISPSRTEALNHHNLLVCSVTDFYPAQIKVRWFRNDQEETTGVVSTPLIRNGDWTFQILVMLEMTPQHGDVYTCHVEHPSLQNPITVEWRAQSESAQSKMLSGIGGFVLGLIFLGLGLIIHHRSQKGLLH

A word on the IC50: it is the concentration needed to halve the response being measured. Regarding `CC[C@H](C)[C@H](NC(=O)[C@H](CCCNC(N)=O)NC(=O)[C@H](CC(N)=O)NC(=O)[C@@H](NC(=O)[C@H](Cc1ccccc1)NC(=O)[C@H](CC(=O)O)NC(=O)[C@H](CCC(N)=O)NC(=O)[C@@H](N)CC(N)=O)[C@@H](C)O)C(=O)N[C@@H](CC(N)=O)C(=O)N[C@@H](CCCCN)C(=O)N[C@@H](CC(C)C)C(=O)N[C@@H](CCCCN)C(=O)N[C@@H](CC(N)=O)C(=O)N[C@@H](CO)C(=O)O` [Fibrinogen 78–91 Cit] (H-NQDFTN[Cit]INKLKNS-OH), the IC50 was more than 30 µM in assay [1]; 11.3 µM in assay [2]; 15.3 µM in [3]; more than 30 µM in [4]; 35.7 µM in assay [5]; 15.7 µM in [6]. The IC50 in assay [7] is more than 30 µM; in [8] it was more than 30 µM; in assay [9], more than 30 µM; in [10] it was more than 30 µM; in [11] it was more than 30 µM; in [12], 9.38 µM. Also, the IC50 was 2.32 µM in [13]; more than 30 µM in [14]; 8.48 µM in assay [15]; 0.0092 µM in [16]; more than 30 µM in [17]; more than 30 µM in assay [18]. Further, the values for the IC50 in assay [19], in [20] and in assay [21] were more than 30 µM, 12.9 µM and 12.7 µM, respectively.
Regarding NQDFTNRINKLKNS [Fibrinogen 78–91 WT], the concentration for half-maximal inhibition (IC50) in [1] was more than 30 µM; in [2], 12.8 µM; in assay [3], 8.43 µM; in assay [4], more than 30 µM; in [5], 0.457 µM; in [6] it was more than 30 µM. Also, the IC50 was more than 30 µM in [7]; more than 30 µM in [8]; more than 30 µM in assay [9]; more than 30 µM in assay [10]; more than 30 µM in [11]; 27.8 µM in assay [12]. Also, the IC50 is 2.05 µM in assay [13]; 13.9 µM in assay [14]; 3.58 µM in assay [15]; 0.023 µM in assay [16]; more than 30 µM in assay [17]; more than 30 µM in assay [18]. The IC50 in [19] is 11.1 µM; in assay [20] it was more than 30 µM; in assay [21] it was 7.7 µM.
For SAVRLRSSVPGVR [Vimentin 66–78 WT], the 50% inhibitory concentration (IC50) in assay [1] amounted to 0.927 µM; in assay [2], 3.96 µM; in assay [3], 1.08 µM; in [4], 9.09 µM; in [5] it was 0.053 µM; in [6], 3.26 µM. Moreover, the IC50 was more than 30 µM in assay [7]; 2.1 µM in [8]; more than 30 µM in assay [9]; 12.2 µM in [10]; 0.0041 µM in assay [11]; 15.9 µM in [12]. For the same molecule, the IC50 in [13] was 0.206 µM; in assay [14], 11.8 µM; in [15] it was 5.17 µM; in assay [16], 2.23 µM; in [17], more than 30 µM; in assay [18], 11.4 µM. Further, the IC50 in [19] was determined as 1.41 µM; in [20], 13.1 µM; in [21], 2.02 µM.
For the molecule `CC(C)C[C@H](NC(=O)[C@H](CCCNC(=N)N)NC(=O)[C@@H](NC(=O)[C@H](C)NC(=O)[C@@H](N)CO)C(C)C)C(=O)N[C@@H](CCCNC(N)=O)C(=O)N[C@@H](CO)C(=O)N[C@@H](CO)C(=O)N[C@H](C(=O)N1CCC[C@H]1C(=O)NCC(=O)N[C@H](C(=O)N[C@@H](CCCNC(=N)N)C(=O)O)C(C)C)C(C)C` [Vimentin 66–78 Cit] (H-SAVRL[Cit]SSVPGVR-OH), the IC50 was 0.014 µM in [1]; 0.054 µM in assay [2]; 0.118 µM in assay [3]; more than 30 µM in assay [4]; 0.275 µM in assay [5]; 0.0095 µM in assay [6]. The IC50 was more than 30 µM in assay [7]; 2.01 µM in assay [8]; more than 30 µM in assay [9]; 25.9 µM in assay [10]; 0.0054 µM in [11]; 2.22 µM in assay [12]. The IC50 in [13] stood at 0.009 µM; in [14], 8.92 µM; in [15], 0.035 µM; in assay [16] it was 1.36 µM; in assay [17], 7.31 µM; in assay [18], 15 µM. In addition, the IC50 stood at 0.353 µM in [19], 0.0018 µM in [20] and 0.004 µM in assay [21].
